Laboratory results from paper PMC11986180, “ZIF-8 Selective Dispersive Solid-Phase Extraction-LC-MS/MS Method for the Determination of Aconitine alkaloids in Rat Plasma: Application in Pharmacokinetic Studies” (Journal of Analytical Methods in Chemistry, 2025).
Read-outs that look alike come from different tables or passages of the source.

Key:
[1] = Pharmacokinetics of aconitine alkaloids in rat plasma after oral administration of Fuzi extract (d-SPE-LC-MS/MS); type: in vivo, Sprague–Dawley rats; details: for AUC(0-inf) / AUC(0-t) / half-life / MRT last / MRT inf / Tmax: n = 6, oral (gastric gavage) 10 mg/kg Fuzi extract; for half-life: one-compartment model; for MRT last: read-out: MRT0-t; for MRT inf: read-out: MRT0-∞; for Cmax: oral 10 mg/kg Fuzi extract, read-out: maximum concentrations (Cmax); for Tmax: 10 mg/kg
Method: Male Sprague–Dawley rats (250–300 g, 8–10 weeks old) were procured from Shenzhen Bao'an Authentic TCM Therapy Hospital (Guangzhou, China) and acclimatized in a controlled environment (temperature: 25°C ± 2°C; humidity: 50% ± 5%; 12-h dark–light cycle) for at least 3 days before experimentation (Animal License Number: SCXK [Guangdong] 2022-0002). Laboratory animal compound feed (Guangdong Feeding Certificate: 2019, No. 05,073) was provided. All animal experiments were performed in accordance with the Guide for the Care and Use of Laboratory Animals by the National Institutes of Health. Ethical approval for the animal studies was obtained from the Ethics Committee of Sinopharm Dongfeng General Hospital. The animal protocols used in this study were approved by the Institutional Animal Care and Use Committee of Sinopharm Dongfeng General Hospital.
The crude powder of Fuzi (50 g) was decocted in 500 mL of water for 1 h to obtain the crude extract, which was then concentrated to 100 mL and stored at 4°C.
All rats were maintained under standard conditions with ad libitum access to food and water. They were divided into two groups: Group 1 was used to prepare blank plasma samples, and Group 2 was designated for pharmacokinetic studies. Drug-free rat plasma was collected via suborbital venous hemorrhage. Pharmacokinetic studies involved continuous blood sampling from the suborbital venous plexus, as described previously. Each rat was administered a 10 mg/kg dose of Fuzi extract via gastric gavage. Blood samples (200 μL) were collected at […] time points (0, 0.25, 0.50, 0.75, 1.0, 2.0, 3.0, 4.0, 6.0, 8.0, 10, 12, and 24 h postadministration) for pharmacokinetic analysis. The samples were collected into microtubes containing 5 μL of heparin, followed by centrifugation at 4000 rpm for 10 min. The resulting plasma ([…]) was separated and immediately frozen at −20°C for further analysis. Figure 2 illustrates the typical d-SPE–LC/MS profile of blank plasma and aconitine alkaloids, showing distinct peaks in rat plasma at 1 h postadministration without interference from endogenous peaks, thus maintaining a stable baseline for analyte and IS detection.
Before solid-phase extraction, ZIF-8 was activated by placing it in a vacuum-drying oven at 60°C for 24 h to remove surface-adsorbed water and other volatile substances. Rat plasma (100 μL) was combined with 350 μL of a 50% acetonitrile–water solution and 50 μL of yohimbine (IS). Following this, 15 mg of ZIF-8 was added to the mixture, which was then shaken for 18 min for extraction. After centrifugation, the adsorbent remained in the tube while the supernatant was discarded. Subsequently, 1000 μL of methanol was added to the tube, and ultrasonic elution of the nanocomposite was performed for 5 min. After centrifugation to collect the ZIF-8 nanocomposites, 900 μL of the eluent was evaporated using N2 flow at 40°C. The resulting residue was redissolved in 50 μL of methanol to obtain the final sample solution and analyzed by HPLC–MS/MS. The extraction process for aconitine alkaloids is depicted in Figure 3.
The pharmacokinetic parameters of aconitine alkaloids in rats were calculated using Phoenix WinNonlin 8.3 software. The maximum plasma concentration (Cmax) and the time to reach Cmax (Tmax) were directly derived from the experimental data. The elimination rate constant (Ke) was determined by linear regression of the terminal semilogarithmic plot of plasma concentration versus time, and the elimination half-life (t1/2) was calculated as 0.693/Ke. All data are presented as mean ± standard deviation.
The plasma concentrations of five aconitine alkaloid species from Fuzi were quantified using the present method. The peak plasma concentrations of aconitine, hypaconitine, mesaconitine, lappaconitine, and benzoylaconitine were reached within 0.75 h, indicating rapid absorption into the systemic circulation. […]

[2] = type: physicochemical, rat
Method: Aconitine, hypaconitine, mesaconitine, lappaconitine, benzoylaconitine, and yohimbine were individually dissolved in 10 mL of methanol to prepare the stock solution. These compounds were subsequently diluted with methanol to achieve final concentrations of 10 and 5.0 μg/mL to prepare the working standard solutions, which were stored at 4°C before use. Under the optimized conditions, 10 μL of the working standard solution and IS (5.0 μg/mL), along with 15 mg of ZIF-8, was added to 200 μL of blank rat plasma and various blank tissue homogenates. The final concentrations of the calibration standard samples were 0.3125, 0.625, 1.5625, 3.125, 6.25, 12.5, 25, 50, 100, 500, and 1000 ng/mL. Plasma quality control (QC) samples were prepared at concentrations of 0.625, 6.25, 10, and 50 ng/mL. Standard calibration samples and HPLC–MS samples were stored at −20°C until analysis.
Stability tests were conducted to replicate real-world conditions that samples are likely to encounter. […]

[3] = male, Sprague-Dawley, rat, plasma, po, read-out: Tmax
[4] = Automatic (24 h), plasma QC 6.25 ng/mL
[5] = Automatic (24 h), plasma QC 50 ng/mL
[6] = Freeze (−80°C for 30 d), plasma QC 6.25 ng/mL
[7] = Freeze (−80°C for 30 d), plasma QC 50 ng/mL
[8] = Freeze-thaw (three times), plasma QC 6.25 ng/mL
[9] = Freeze-thaw (three times), plasma QC 50 ng/mL
[10] = Room temperature (8 h), plasma QC 6.25 ng/mL
[11] = Room temperature (8 h), plasma QC 50 ng/mL

Structure (SMILES)	AUC(0-inf) ([1]; male, Sprague-Dawley)	AUC(0-t) ([1]; male, Sprague-Dawley)	half-life ([1]; male, Sprague-Dawley)	MRT last ([1]; male, Sprague-Dawley)	MRT inf ([1]; male, Sprague-Dawley)	Cmax ([1]; male, Sprague-Dawley)	Tmax [1, 3]	Tmax [1]	Stability RE % [2, 4]	Stability RE % [2, 5]	Stability RE % [2, 6]	Stability RE % [2, 7]	Stability RE % [2, 8]	Stability RE % [2, 9]	Stability RE % [2, 10]	Stability RE % [2, 11]	other results
CCN1C[C@]2(COC)[C@H](O)C[C@H](OC)[C@@]34[C@@H]5C[C@@]6(O)[C@H](OC(=O)c7ccccc7)[C@@H]5[C@@](OC(C)=O)([C@@H]([C@H](OC)[C@H]23)[C@@H]14)[C@@H](O)[C@@H]6OC [Aconitine]	26.9 ± 0.696 ng·h/mL	25.3 ± 0.566 ng·h/mL	5.77 ± 0.348 h	7.11 ± 0.143 h	8.59 ± 0.349 h	7.47 ± 0.732 ng/mL	≤ 0.75 h	0.5 h	4.19%	−10.01%	4.94%	−9.37%	3.96%	−8.46%	−1.08%	−8.69%	–
CCN1CC2(COC)C(O)CC(OC)C34C5CC6(O)C(OC)C(O)C(O)(C5C6OC(=O)c5ccccc5)C(C(OC)C23)C14 (stereo not shown) [Benzoylaconitine]	14.1 ± 9.31 ng·h/mL	3.76 ± 0.0401 ng·h/mL	62.4 ± 57.4 h	9.95 ± 0.374 h	87.9 ± 79.7 h	0.939 ± 0.199 ng/mL	–	0.25 h	−8.67%	−9.65%	−7.70%	−10.48%	−6.91%	−10.57%	−7.89%	−7.98%	–
COC[C@@]12CC[C@H](OC)[C@]34C(C([C@H](OC)[C@H]13)[C@]1(OC(C)=O)[C@H]3[C@@H](OC(=O)c5ccccc5)[C@](O)(C[C@H]34)[C@@H](OC)[C@@H]1O)N(C)C2 [Hypaconitine]	80.5 ± 2.91 ng·h/mL	47.3 ± 1.33 ng·h/mL	21.2 ± 0.505 h	8.627 ± 0.0519 h	27.6 ± 0.562 h	9.92 ± 0.33 ng/mL	≤ 0.75 h	0.5 h	−8.00%	1.32%	−3.27%	−2.50%	0.31%	3.47%	−7.92%	−7.90%	–
CCN1CC2(OC(=O)c3ccccc3NC(C)=O)CCC(OC)C34C1C(CC23)C1(O)CC(OC)C2CC4C1(O)C2OC (stereo not shown) [Lappaconitine]	2.421 ± 0.0223 ng·h/mL	2.4 ± 0.0276 ng·h/mL	3.83 ± 0.791 h	4.47 ± 0.0814 h	4.71 ± 0.206 h	1.28 ± 0.121 ng/mL	≤ 0.75 h	0.5 h	–	–	–	–	–	–	–	–	Stability RE % ([2]; Automatic (24 h), plasma QC 3.125 ng/mL): −0.82%; Stability RE % ([2]; Automatic (24 h), plasma QC 25 ng/mL): −7.41%; Stability RE % ([2]; Freeze (−80°C for 30 d), plasma QC 3.125 ng/mL): −0.68%; Stability RE % ([2]; Freeze (−80°C for 30 d), plasma QC 25 ng/mL): −9.65%; Stability RE % ([2]; Freeze-thaw (three times), plasma QC 3.125 ng/mL): −2.04%; Stability RE % ([2]; Freeze-thaw (three times), plasma QC 25 ng/mL): −10.40%; Stability RE % ([2]; Room temperature (8 h), plasma QC 3.125 ng/mL): −0.52%; Stability RE % ([2]; Room temperature (8 h), plasma QC 25 ng/mL): −6.67%
COCC12CN(C)C3C4C(OC)C1C3(C(OC)CC2O)C1CC2(O)C(OC)C(O)C4(OC(C)=O)C1C2OC(=O)c1ccccc1 (stereo not shown) [Mesaconitine]	8.11 ± 0.46 ng·h/mL	7.7 ± 0.411 ng·h/mL	5.35 ± 0.562 h	5.69 ± 0.188 h	7.03 ± 0.479 h	1.71 ± 0.0446 ng/mL	≤ 0.75 h	0.75 h	−9.09%	−9.89%	−7.23%	−9.46%	−1.29%	−7.50%	0.97%	−12.74%	–
